Assay results reported in patent US20150366839A1, “Schisantherin A for the treatment of neurodegenerative diseases” (priority 2014, published 2015).

Columns and labels:
SH-SY5Y cells = test: MTT neuroprotection against 6-OHDA-induced cytotoxicity; assay type: cell-based, Human
Protocol: Human neuroblastoma SH-SY5Y cells were purchased from the American Type Culture Collection (ATCC, Manassas, Va., USA) and cultured in a humidified 5% (v/v) CO2 atmosphere in 37° C. in Dulbecco's Modified Eagle Medium (DMEM) (Life technologies, NY, USA) supplemented with 10% FBS, 1% penicillin (100 U/mL) and streptomycin (100 μg/mL). All experiments were carried out 48 h after the cells were seeded.
Cell viability was determined by 3-(4,5-dimethyl-2-thiazolyl) 2,5-diphenyl-2H-tetrazolium bromide (MTT) assay (Sigma-Aldrich, USA). SH-SY5Y cells were seeded in 96-well plates (1×10^4 cells/well) for 48 h. SH-SY5Y cells were pre-treated with different concentrations of the five lignans (i.e. Schizandrin A, Schizandrin B, SC, Schizandrol A and SchiA) for 12 h and the cell viability was checked by MTT assay. Otherwise, SH-SY5Y cells were pre-treated with different concentrations of the five lignans for 12 h and then exposed to 400 μM 6-OHDA for 4 h. Cells were incubated at 37° C. for 4 h in 0.5 mg/mL MTT solution (prepared in serum free DMEM medium). The medium was then removed, and 100 μL of DMSO was added to each well to dissolve the violet-formazan crystals. The absorbance at 570 nm with 655 nm as a reference wavelength was measured by a multi-label counter (Wallac VICTOR3TMV, Perkin Elmer, Netherlands). Cell viability was expressed as a percentage of the value of the cells without 6-OHDA treatment. The LC50 and EC50 were calculated by GraphPad Prism V5.0 (GraphPad Software, Inc., San Diego, Calif.).
To further study the neuroprotective activities of the five lignans against 6-OHDA-induced cytotoxicity, cells were treated with various concentrations (3, 6, 12, 25, 50 and 100 μM) of the tested compounds for 12 h before exposed to 400 μM 6-OHDA for 4 h.

zebrafish larvae = settings: 2.5-10 μM with 10 μM MPTP, 4 days, 10 min session
Protocol: The wild type zebrafish was used for this study. Embryos were collected after natural spawning, staged according to standard criteria and raised synchronously at 28.5° C. in embryo medium (13.7 mM NaCl, 540 μM KCl, pH 7.4, 25 μM Na2HPO4, 44 μM KH2PO4, 300 μM CaCl2, 100 μM MgSO4, 420 μM NaHCO3, pH 7.4). Zebrafish were staged by days post fertilization (dpf) according to criteria. […] Drugs (i.e. the five lignans) were dissolved in DMSO and directly added into the zebrafish embryo medium to treat fish. […] An equal concentration of DMSO in embryo medium was used as vehicle control in each experiment.
Then the total distance of movement was defined as the distance (in cm) was recorded using a 96-well plate filled with 200 μL embryo medium in a 10 minutes long session. Zebrafish were allowed to accommodate to the environment of the system for 1 hour before the start of the data acquisition.
In this study, Zebrafish larvae at 3 dpf were exposed to 2.5-10 μM SchiA with or without 10 μM MPTP for another 4 days, and zebrafish larval co-treated with MPTP and 150 μM L-dopa or 3 μM NOM (Nomifensine) were used as positive controls. After treatment, zebrafish were collected to perform locomotion behavior test using Viewpoint Zebrabox system and total distances travelled in 10 min were calculated. […]

caspase-7 = test: MPP+-induced caspase-7 activation, Western blot; assay type: cell-based, Human; settings: 60 μM 12 h, then 2 mM MPP+ 36 h
Protocol: (§1) After treatment, SH-SY5Y cells were washed three times with PBS and then lysis with RIPA lysis buffer containing 1% PMSF and 1% Protease Inhibitor Cocktail and incubated for 30 min on ice. Cell lysates were centrifuged at 12,500 g for 20 min at 4° C. The supernatant was separated and the amount of protein was determined using the BCA protein assay kit (Thermo Scientific Pierce, USA). Protein samples (30 μg) were separated by SDS-PAGE (10% (w/v)) polyacrylamide gel and then transferred to a polyvinylidene difluoride (PVDF) membrane (Bio-Rad, Hercules, Calif.). Subsequently, the membrane was blocked with 5% (v/v) non-fat milk in PBST (PBS containing 0.1% Tween 20) for 1 h at room temperature. The blots were incubated overnight at 4° C. with primary antibodies. After three washes with PBST, the membranes were incubated with horseradish peroxidase-conjugated secondary antibodies (1:2000) in PBST with 5% non-fat milk for 1 h at room temperature. […] Quantitative assessment of protein bands was done with Gel Doc™ XRS equipped with Quantity One software.
(§2) The inventors performed Western blot to measure the expression of active-form of caspase-3 and caspase-7 in SH-SY5Y cells. […] Caspase-3 activity was expressed as units per mg protein. ###p<0.005 versus control group; *p<0.05, **p<0.01 and *** p<0.005 versus MPP+ group.

[1] = system: intracellular NO in SH-SY5Y cells; test: 6-OHDA-induced NO production (DAF-FM diacetate); assay type: cell-based, Human
Protocol: Intracellular NO was evaluated by using the fluorescent probe 4-amino-5-methylamino-2′,7′-difluorofluoresecin diacetate (DAF-FM diacetate), which is cell-permeant and diffuses passively across cellular membranes. Once inside the cells, DAF-FM diacetate is deacetylated by intracellular esterases to DAF-FM. DAF-FM is essentially non-fluorescent until DAF-FM reacts with NO. Thus, it can be used to quantify intracellular NO production. The cells were seeded in 96-well, black bottom-clear plates. […] The cells were then washed twice in PBS and the fluorescence was evaluated in a multi-label counter at an excitation wavelength of 495 nm and an emission wavelength of 515 nm. The increase in fluorescence for each treatment was calculated as the relative fluorescence of each treatment compared with the untreated control cells.
Augmented NO production subsequent to iNOS induction appears to play an important role in the initial phase of 6-OHDA-induced neuro-damage models in vitro and in vivo (Singh, Das et al. 2005; Lin, Uang et al. 2007; Shih, Chen et al. 2011). […] Expression of the total iNOS proteins were determined by Western blot analysis. […] Results of FIGS. 4A-C are expressed as a percentage of relative fluorescent intensity (RFI) of the Control group. ###P<0.005 versus control group; *p<0.05, **p<0.01 and *** p<0.005 versus 6-OHDA group.

GSK3β = GSK3β phosphorylation (Ser9) after 6-OHDA, Western blot; assay type: cell-based, Human; settings: pretreated 12 h, then 400 μM 6-OHDA 4 h
Protocol: After treatment, SH-SY5Y cells were washed three times with PBS and then lysis with RIPA lysis buffer containing 1% PMSF and 1% Protease Inhibitor Cocktail and incubated for 30 min on ice. Cell lysates were centrifuged at 12,500 g for 20 min at 4° C. The supernatant was separated and the amount of protein was determined using the BCA protein assay kit (Thermo Scientific Pierce, USA). Protein samples (30 μg) were separated by SDS-PAGE (10% (w/v)) polyacrylamide gel and then transferred to a polyvinylidene difluoride (PVDF) membrane (Bio-Rad, Hercules, Calif.). Subsequently, the membrane was blocked with 5% (v/v) non-fat milk in PBST (PBS containing 0.1% Tween 20) for 1 h at room temperature. The blots were incubated overnight at 4° C. with primary antibodies. After three washes with PBST, the membranes were incubated with horseradish peroxidase-conjugated secondary antibodies (1:2000) in PBST with 5% non-fat milk for 1 h at room temperature. After repeated washes, proteins were visualized with an ECL advanced western blotting detection kit. Photographs of protein bands were taken by a Molecular Imager ChemiDoc XRS (Bio-Rad, Hercules, Calif.). Quantitative assessment of protein bands was done with Gel Doc™ XRS equipped with Quantity One software. […]

caspase-3 = test: MPP+-induced caspase-3 activation, Western blot; assay type: cell-based, Human; settings: 60 μM 12 h, then 2 mM MPP+ 36 h
Protocol: as §1, §2

COc1cc2c(c(OC)c1OC)-c1c(cc3c(c1OC)OCO3)C[C@H](C)[C@](C)(O)[C@H]2OC(=O)c1ccccc1 [SchiA, Schisantherin A] was tested, and the “protection against 6-OHDA-induced damage (cell viability)” value (SH-SY5Y cells; 3, 6, 12, 25, 50 and 100 μM for 12 h before 400 μM 6-OHDA 4 h) was “protected SH-SY5Y cells against 6-OHDA-induced damage in a dose-dependent manner”, the EC50 (SH-SY5Y cells; pre-treated 12 h, then 400 μM 6-OHDA 4 h) was 8.1 µM and the “MPTP-induced reduction of total distance of movement” value (zebrafish larvae) was “inhibited MPTP-induced reduction of total distance of movement in zebrafish in a dose dependent manner”. For the same molecule, the “MPP+-induced caspase-7 activation (active form)” value (caspase-7) was “significant decrease”, the “6-OHDA-induced increase in DAF-FM fluorescence (NO)” value ([1]; 60 μM 12 h, then 400 μM 6-OHDA 2 h) was “inhibited such increase in DAF-FM fluorescence” and the “DAF-FM fluorescence intensity, compound alone” value ([1]; 60 μM, without 6-OHDA) was “no effect”. For the same molecule, the “6-OHDA-induced repression of GSK3β phosphorylation at serine 9” value (GSK3β) was “completely blocked” and the “MPP+-induced caspase-3 activation (active form)” value (caspase-3) was “significant decrease”.
